Assay [1] deals with T1, recombinant human Dopamine Subtype D2s receptors (Homo sapiens, UniProt P14416).
T1 construct: purchased Perkin Elmer
In words: Dopamine D2 selectivity binding assay ([3H]-spiperone). The note with it: inhibition of [3H]-spiperone (0.16 nM) binding; read-out: D2 bind pIC50 (converted). The protocol:
Membranes containing recombinant human Dopamine Subtype D2s receptors were obtained from Perkin Elmer. These were diluted in Assay Buffer (50 mM HEPES, 1 mM EDTA, 120 mM NaCl, 0.1% gelatin, pH 7.4) to provide a final concentration of membranes that gave a clear window between maximum and minimum specific binding.
(§1) Assays were performed in U-bottomed 96-well polypropylene plates. 30 μL [^3H]-spiperone (0.16 nM final concentration) and 30 μL of test compound (10× final concentration) were added to each test well. For each assay plate 8 replicates were obtained for [^3H]-spiperone binding in the presence of 30 μL vehicle (10% (v/v) DMSO in Assay Buffer; defining maximum binding) or 30 μL Haloperidol (10 μM final concentration; defining non-specific binding (NSB)). Membranes were then added to achieve a final volume of 300 μL. The plates were incubated for 2 hours at room temperature and then filtered onto PEI coated GF/B filter plates, pre-soaked for 1 hour in Assay Buffer, using a 96-well plate Tomtec cell harvester. Five washes with 250 μL wash buffer (50 mM HEPES, 1 mM EDTA, 120 mM NaCl, pH 7.4) were performed at 4° C. to remove unbound radioactivity. The plates were dried then sealed from underneath using Packard plate sealers and MicroScint-O (50 μL) was added to each well. The plates were sealed (TopSeal A) and filter-bound radioactivity was measured with a scintillation counter (TopCount, Packard BioScience) using a 3-minute counting protocol.
Total specific binding (B0) was determined by subtracting the mean NSB from the mean maximum binding. NSB values were also subtracted from values from all other wells. […] Data was fitted to a four parameter logistic equation to determine the compound potency, which was expressed as pIC50 (negative log molar concentration inducing 50% inhibition of [^3H]-spiperone binding).

For assay [2], the target named is T2, recombinant human adrenergic beta 1 receptors (Homo sapiens, UniProt P08588).
T2 construct: purchased Euroscreen
In words: Adrenergic β1 selectivity binding assay ([125I]-Iodocyanopindolol). The note with it: inhibition of [125I]-Iodocyanopindolol (0.036 nM) binding; read-out: β1 bind p IC50 (converted). The method, then: Membranes containing recombinant human adrenergic beta 1 receptors were obtained from Euroscreen. These were diluted in Assay Buffer (50 mM HEPES, 1 mM EDTA, 120 mM NaCl, 0.1% gelatin, pH 7.4) to provide a final concentration of membranes that gave a clear window between maximum and minimum specific binding.
as §1, with “10” for “30”, “[^125I]-Iodocyanopindolol (0.036” for “[^3H]-spiperone (0.16”, “[^125I]-Iodocyanopindolol” for “[^3H]-spiperone”, “Propranolol” for “Haloperidol”, “100” for “300”
Total specific binding (B0) was determined by subtracting the mean NSB from the mean maximum binding. NSB values were also subtracted from values from all other wells. […] Data was fitted to a four parameter logistic equation to determine the compound potency, which was expressed as pIC50 (negative log molar concentration inducing 50% inhibition of [^125I]-Iodocyanopindolol binding).

Data on nine molecules can be found in patent publication US20100022491A1, “4-HYDROXY-2-OXO-2,3-DIHYDRO-1,3-BENZOTHIAZOL-7YL COMPOUNDS FOR MODULATION OF B2-ADRENORECEPTOR ACTIVITY” (ASTRAZENECA AB, priority 2006, published 2010).

Where a name gives a salt, the structure may show the parent alone.

T2 sequence (P08588 whole entry): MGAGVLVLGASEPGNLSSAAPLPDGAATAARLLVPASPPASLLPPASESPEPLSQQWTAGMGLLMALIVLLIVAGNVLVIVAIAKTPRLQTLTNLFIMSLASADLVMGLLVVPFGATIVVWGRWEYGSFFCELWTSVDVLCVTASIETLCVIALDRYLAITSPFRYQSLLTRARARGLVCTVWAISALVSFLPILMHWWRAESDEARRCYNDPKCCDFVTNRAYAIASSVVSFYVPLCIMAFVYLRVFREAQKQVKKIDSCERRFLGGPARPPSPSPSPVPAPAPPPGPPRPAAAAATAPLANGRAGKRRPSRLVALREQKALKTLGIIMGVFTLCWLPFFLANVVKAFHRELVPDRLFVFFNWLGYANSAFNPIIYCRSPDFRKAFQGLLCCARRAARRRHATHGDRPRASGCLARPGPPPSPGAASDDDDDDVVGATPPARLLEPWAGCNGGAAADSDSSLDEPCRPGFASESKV
T1 sequence (P14416 1-414 isoform P14416-2): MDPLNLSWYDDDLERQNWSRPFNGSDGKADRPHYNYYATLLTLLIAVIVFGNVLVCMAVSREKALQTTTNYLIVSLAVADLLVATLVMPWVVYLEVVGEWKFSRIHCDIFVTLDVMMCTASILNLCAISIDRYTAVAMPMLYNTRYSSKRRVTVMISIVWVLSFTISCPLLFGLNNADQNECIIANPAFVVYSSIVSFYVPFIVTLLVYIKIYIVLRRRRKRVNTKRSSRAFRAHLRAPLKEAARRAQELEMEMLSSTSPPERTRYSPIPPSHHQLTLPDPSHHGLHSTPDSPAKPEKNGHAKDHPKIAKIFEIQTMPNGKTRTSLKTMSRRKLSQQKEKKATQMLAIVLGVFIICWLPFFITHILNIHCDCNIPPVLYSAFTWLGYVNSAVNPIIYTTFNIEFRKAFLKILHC

As for `O=C(CCNCCc1ccccc1)N(CCNCCc1ccc(O)c2[nH]c(=O)sc12)C1CCCC1` [Example 2, N-Cyclopentyl-N-(2-{[2-(4-hydroxy-2-oxo-2,3-dihydro-1,3-benzothiazol-7-yl)ethyl]amino}ethyl)-N^3-(2-phenylethyl)-β-alaninamide bis-trifluoroacetic acid salt], the IC50 is 0.251 µM in assay [1] and 5.01 µM in assay [2].
For `CC(C)(C)CN(CCNCCc1ccc(O)c2[nH]c(=O)sc12)C(=O)CCNCCc1ccccc1` [Example 6, N-(2,2-Dimethylpropyl)-N-(2-{[2-(4-hydroxy-2-oxo-2,3-dihydro-1,3-benzothiazol-7-yl)ethyl]amino}ethyl)-N^3-(2-phenylethyl)-β-alaninamide bis-trifluoroacetic acid salt], the figures for the IC50 in assay [1] and in assay [2] were 0.2 µM and 0.794 µM, respectively.
`CC(C)(C)CN(CCNCCc1ccc(O)c2[nH]c(=O)sc12)C(=O)CCNCCc1cccc(Cl)c1` [Example 7, N^3-[2-(3-Chlorophenyl)ethyl]-N-(2,2-dimethylpropyl)-N-(2-{[2-(4-hydroxy-2-oxo-2,3-dihydro-1,3-benzothiazol-7-yl)ethyl]amino}ethyl)-β-alaninamide bis-trifluoroacetic acid salt]: the IC50 was 0.316 µM in assay [1] and 3.16 µM in assay [2].
On to `CC(C)(C)CN(CCNCCc1ccc(O)c2[nH]c(=O)sc12)C(=O)CCNCCc1ccc(Cl)cc1` [Example 8, N^3-[2-(4-Chlorophenyl)ethyl]-N-(2,2-dimethylpropyl)-N-(2-{[2-(4-hydroxy-2-oxo-2,3-dihydro-1,3-benzothiazol-7-yl)ethyl]amino}ethyl)-β-alaninamide bis-trifluoroacetic acid salt], for which the IC50 is 0.398 µM in assay [1] and 5.01 µM in assay [2].
For `CC(C)(C)CN(CCNCCc1ccc(O)c2[nH]c(=O)sc12)C(=O)CCNCCc1ccc(Cl)c(Cl)c1` [Example 9, N^3-[2-(3,4-Dichlorophenyl)ethyl]-N-(2,2-dimethylpropyl)-N-(2-{[2-(4-hydroxy-2-oxo-2,3-dihydro-1,3-benzothiazol-7-yl)ethyl]amino}ethyl)-β-alaninamide bis-trifluoroacetic acid salt], the figures for the IC50 in assay [1] and in assay [2] were 0.251 µM and 5.01 µM, respectively.
For `C[C@H](CNCCC(=O)N(CCNCCc1ccc(O)c2[nH]c(=O)sc12)CC(C)(C)C)c1ccccc1` [Example 11, N-(2,2-Dimethylpropyl)-N-(2-{[2-(4-hydroxy-2-oxo-2,3-dihydro-1,3-benzothiazol-7-yl)ethyl]amino}ethyl)-N^3-[(2S)-2-phenylpropyl]-β-alaninamide bis-trifluoroacetic acid salt], in that order: 0.501 µM and 7.94 µM.
With `O=C(CCNCCc1cccc(Cl)c1)N(CCNCCc1ccc(O)c2[nH]c(=O)sc12)C1CCCCC1` [Example 12, N^3-[2-(3-Chlorophenyl)ethyl]-N-cyclohexyl-N-(2-{[2-(4-hydroxy-2-oxo-2,3-dihydro-1,3-benzothiazol-7-yl)ethyl]amino}ethyl)-β-alaninamide bis-trifluoroacetic acid salt], the IC50 in assay [1] was 0.0501 µM; in assay [2], 3.16 µM.
For `O=C(CCNCCc1ccc(Cl)cc1)N(CCNCCc1ccc(O)c2[nH]c(=O)sc12)C1CCCCC1` [Example 13, N^3-[2-(4-Chlorophenyl)ethyl]-N-cyclohexyl-N-(2-{[2-(4-hydroxy-2-oxo-2,3-dihydro-1,3-benzothiazol-7-yl)ethyl]amino}ethyl)-β-alaninamide bis-trifluoroacetic acid salt], in that order: 0.126 µM and 3.16 µM.
On to `Cc1cccc(CCNCCC(=O)N(CCNCCc2ccc(O)c3[nH]c(=O)sc23)C2CCCCC2)c1` [Example 14, N-Cyclohexyl-N-(2-{[2-(4-hydroxy-2-oxo-2,3-dihydro-1,3-benzothiazol-7-yl)ethyl]amino}ethyl)-N^3-[2-(3-methylphenyl)ethyl]-β-alaninamide bis-trifluoroacetic acid salt], for which the values for the IC50 in assay [1] and in assay [2] were 0.501 µM and 7.94 µM, respectively.
